The subject of series [1] is Candida albicans. Description: Antifungal activity against Candida albicans SC5314 infected in ICR mouse assessed as reduction in fungal kidney burden by measuring CFU at 0.6 mg/kg, ip measured after 5 days. The format is functional, organism-based. The conditions noted are these: time 5.0 day.
The nature of series [2]: Cytotoxicity against mouse J774.A1 cells assessed as cell growth inhibition by MTT assay. Type of series: toxicity, cell-based.
Series [3] concerns Candida albicans. Description: Antifungal activity against fluconazole-resistant Candida albicans 904 assessed as reduction in TEC1 expression at 16 ug/ml incubated for 12 hrs by RT-PCR analysis. Type of series: functional, organism-based. The conditions noted are these: dose 16.0 µg/ml.
Series [4] concerns Candida albicans. Briefly: Antifungal activity against fluconazole-resistant Candida albicans 904 assessed as reduction in […] cell count at 16 times MIC incubated for 24 hrs by time-kill assay (reference value: 4 log10CFU/mL). The format is functional.
Series [5] in a line: Cytotoxicity against human MRC5 cells assessed as cell growth inhibition by MTT assay. Type of series: toxicity, cell-based.
Another series concerns the target T1, Cytochrome P450 1A2 (Homo sapiens, UniProt P05177).
T1 sequence (P05177 whole entry): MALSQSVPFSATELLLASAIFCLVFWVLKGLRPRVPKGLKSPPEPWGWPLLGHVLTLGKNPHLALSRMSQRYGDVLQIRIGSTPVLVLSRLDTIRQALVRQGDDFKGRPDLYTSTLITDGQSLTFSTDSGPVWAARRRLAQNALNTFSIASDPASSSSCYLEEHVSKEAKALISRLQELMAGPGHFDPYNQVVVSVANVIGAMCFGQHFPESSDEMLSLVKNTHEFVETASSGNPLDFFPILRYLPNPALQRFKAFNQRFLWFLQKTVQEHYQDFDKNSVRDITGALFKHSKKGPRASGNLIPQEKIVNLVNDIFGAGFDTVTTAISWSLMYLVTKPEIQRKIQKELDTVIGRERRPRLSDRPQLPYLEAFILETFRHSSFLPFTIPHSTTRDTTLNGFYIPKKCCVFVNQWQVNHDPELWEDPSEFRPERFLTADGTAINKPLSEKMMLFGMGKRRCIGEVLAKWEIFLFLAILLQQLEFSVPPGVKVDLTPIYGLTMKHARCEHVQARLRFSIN
Description: Inhibition of CYP1A2 in human liver microsomes using phenacetin as substrate preincubated for 5 mins followed by NADPH addition by LC-MS/MS analysis. Type of series: ADME, Microsome. In general terms: Liver microsomes are vesicles of endoplasmic reticulum, rich in cytochrome P450 enzymes.

The subject of series [6] is Candida albicans. Briefly: Antifungal activity against Candida albicans CPCC400616 assessed as reduction in EFG1 expression at 2 ug/ml incubated for 12 hrs by RT-PCR analysis. The format is functional, organism-based. The conditions noted are these: dose 2.0 µg/ml.
Series [7] has as its system Candida albicans. Description: Antifungal activity against Candida albicans CPCC400616 assessed as reduction in ALS3 expression at 2 ug/ml incubated for 12 hrs by RT-PCR analysis. The format is functional, organism-based. The conditions noted are these: dose 2.0 µg/ml.
A short description of series [8]: Subacute toxicity in KM mouse assessed as abnormal behaviour at 100 mg/kg administered via gavage daily for 14 days. As to conditions: in vivo, po, 336 h, time 14 day. Type of series: organism-based.
Series [9] in a line: Subacute toxicity in female KM mouse assessed as kidney damage at 100 mg/kg administered via gavage daily for 14 days. Type of series: organism-based. As to conditions: in vivo, po, 336 h, time 14 day.
Series [10] concerns Candida albicans. Description: Antifungal activity against Candida albicans CPCC400616 assessed as fungal growth inhibition by CLSI based microdilution method. Type of series: functional. (Broth dilution looks for growth in wells or tubes with falling amounts of substance.)
For the next series, the target named is Cytochrome P450 2D6 (Homo sapiens, UniProt P10635). Briefly: Inhibition of CYP2D6 in human liver microsomes using dextromethorphan as substrate preincubated for 5 mins followed by NADPH addition by LC-MS/MS analysis. The format is ADME, Microsome.
Cytochrome P450 2D6, sequence (P10635 whole entry): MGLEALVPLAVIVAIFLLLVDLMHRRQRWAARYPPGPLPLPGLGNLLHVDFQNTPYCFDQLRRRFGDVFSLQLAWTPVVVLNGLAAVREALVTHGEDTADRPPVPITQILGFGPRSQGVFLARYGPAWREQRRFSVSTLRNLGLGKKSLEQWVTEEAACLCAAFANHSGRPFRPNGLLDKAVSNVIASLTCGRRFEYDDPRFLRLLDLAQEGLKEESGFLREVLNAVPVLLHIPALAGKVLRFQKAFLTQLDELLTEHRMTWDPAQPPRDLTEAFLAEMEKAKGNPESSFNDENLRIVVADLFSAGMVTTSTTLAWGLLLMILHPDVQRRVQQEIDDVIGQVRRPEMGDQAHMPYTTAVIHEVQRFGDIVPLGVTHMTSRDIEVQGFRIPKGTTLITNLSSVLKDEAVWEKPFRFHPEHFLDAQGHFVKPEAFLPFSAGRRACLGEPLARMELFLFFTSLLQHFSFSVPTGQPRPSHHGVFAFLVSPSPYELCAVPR
Series [11] deals with T2, Lanosterol 14-alpha demethylase (Candida albicans (strain SC5314 / ATCC MYA-2876) (Yeast), UniProt P10613). Briefly: Inhibition of CYP51 in Candida albicans SC5314 assessed as increase in lanosterol level at 0.03125 ug/ml incubated for 24 hrs by GC-MS analysis. The conditions noted are these: at 0.03125 µg/mL.
T2 sequence (P10613 whole entry): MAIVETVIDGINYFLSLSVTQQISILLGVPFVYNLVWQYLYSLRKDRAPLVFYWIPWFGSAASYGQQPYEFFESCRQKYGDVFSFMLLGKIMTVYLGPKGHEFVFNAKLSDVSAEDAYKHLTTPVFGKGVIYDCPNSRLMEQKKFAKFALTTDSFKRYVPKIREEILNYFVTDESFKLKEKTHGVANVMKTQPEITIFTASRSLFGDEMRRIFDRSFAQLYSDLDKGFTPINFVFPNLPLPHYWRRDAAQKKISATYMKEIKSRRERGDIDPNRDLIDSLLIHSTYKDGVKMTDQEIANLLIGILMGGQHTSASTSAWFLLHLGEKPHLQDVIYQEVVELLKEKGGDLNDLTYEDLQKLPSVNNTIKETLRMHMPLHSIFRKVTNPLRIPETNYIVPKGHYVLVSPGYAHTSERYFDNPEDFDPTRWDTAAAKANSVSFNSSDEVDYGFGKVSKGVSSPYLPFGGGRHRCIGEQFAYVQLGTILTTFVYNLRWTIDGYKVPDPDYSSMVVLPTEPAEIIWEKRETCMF
Series [12] has as its system Candida albicans. Briefly: Antibiofilm activity against fluconazole-resistant Candida albicans 904 incubated for 24 hrs by XTT reduction assay. The format is functional, organism-based. The conditions noted are these: dose <= 128.0 µg/ml. In general terms: Formazan colour is commonly taken as a measure of viable cells.
Series [13] can be described thus: Stability in mouse plasma assessed as compound remaining at 1 uM measured for 180 mins by LC-MS/MS analysis. The format is ADME, cell-free. The conditions noted are these: read-out: Stability.
Series [14] addresses T2, Lanosterol 14-alpha demethylase. Description: Inhibition of CYP51 in Candida albicans SC5314 assessed as ergosterol level at 0.03125 ug/ml incubated for 24 hrs by GC-MS analysis (reference value: 97.58 %). On the set-up: scale not given: the % may be the effect or the level left. As to conditions: at 0.03125 µg/mL.
Series [15] has as its system Candida albicans. Description: Antifungal activity against fluconazole-resistant Candida albicans 904 infected in ICR mouse assessed as reduction in fungal kidney burden by measuring CFU administered intraperitoneally measured after 5 days. The format is functional, organism-based. The conditions noted are these: dose 0.6 mg/kg, route ip, time 5.0 day.
A short description of series [16]: Acute toxicity in fasted KM mouse assessed as body weight change at 1000 mg/kg administered via gavage measured for 7 days. The format is organism-based. As to conditions: in vivo, po, 168 h, time 7 day.
Series [17] relates to Candida albicans. Briefly: Antifungal activity against Candida albicans CPCC400616 assessed as reduction in TEC1 expression at 2 ug/ml incubated for 12 hrs by RT-PCR analysis. As to conditions: dose 2.0 µg/ml. Type of series: functional, organism-based.

Results on one compound are retold here after ChEMBL document CHEMBL5365497, “Developing Novel Coumarin-Containing Azoles Antifungal Agents by the Scaffold Merging Strategy for Treating Azole-Resistant Candidiasis” (J Med Chem, 2023).

Each structure is given as a SMILES string. In brackets after ≈: the same amount, converted by molar mass. Activity calls are given as the source filed them. The rule behind the calls is not given here.

Regarding `O=c1ccc2ccc(COC(Cn3ccnc3)c3ccc(Cl)cc3Cl)cc2o1` (centres undefined), the result in the series with Candida albicans [1], in the series on Candida albicans [3], with Candida albicans [6], in the series with Candida albicans [7] and with Candida albicans [17] was Active. Further, the IC50 in series [2] was 24.4 µM; in series [5] it was 24.4 µM; on Cytochrome P450 1A2 it was 6.01 µM; against Cytochrome P450 2D6, 1.14 µM. The Activity was 2 log10CFU/ml in the series with Candida albicans [4]; “Non-Toxic” in series [8]; “Non-Toxic” in series [9]; “Dose-Dependent Effect” in the series with Candida albicans [12]; 1.54% in series [14]; “Dose-Dependent Effect” with Candida albicans [15]. Moreover, the Activity result in [16] is given as “Non-Toxic”. Besides, the MIC in the series on Candida albicans [10] came out at 0.06 µg/mL (≈ 0.144 µM). Further, the “inhibition (INH)” value in [11] is reported as “Active”. Further, the remaining at 3 h, 1 µM in series [13] worked out at 103%.

A word on the IC50: it is the concentration that gives 50% inhibition. Usually MIC stands for the lowest concentration found to suppress growth.
